Assay results from patent US12642794B2, “Dose regimens for use of LY3154207 in the treatment of dopaminergic CNS disorders” (Eli Lilly and Company, priority 2018, dated 2026).

What was measured:
healthy subjects = assay: HBEA Part A single ascending dose study: adverse events, safety, tolerability; assay type: in vivo, human
Protocol: FIG. 1: Design of the study HBEA, a single ascending dose study of a D1 receptor positive allosteric modulator LY3154207 in healthy volunteers. aSafety review completed after each dose level prior to escalation. bDose escalation was terminated at 200 mg owing to cardiovascular effects. CSF=cerebrospinal fluid: LY=LY3154207: PBO=placebo: PK-pharmacokinetic.
(§1) HBEA is a single ascending dose study of a D1 receptor positive allosteric modulator LY3154207 in healthy volunteers. Study HBEA aims to determine the safety, tolerability, and peripheral and central pharmacokinetics (PK) of single ascending doses of LY3154207 in healthy subjects. Study HBEB aims to evaluate the effect of single-dose LY3154207 on sleep latency in sleep-deprived healthy male subjects as measured by a multiple sleep latency test (MSLT). HBEA was a Phase 1, 2-part, randomized, double-blind, placebo-controlled study in healthy males or females. Part A has a 3-period crossover design with 2 alternating, single-dose escalating cohorts, and subjects were randomized to LY3154207 (n=6) or placebo (n=3) in each cohort in each dosing period. Part B has a single-period, single-dose, 2-cohort design with cerebrospinal fluid (CSF) sampling, and subjects were randomized to LY3154207 (n=8) or placebo (n=4) in each cohort.
This is a phase 1, SAD, crossover design of LY3154207 in healthy subjects conducted in 2 alternating cohorts with dose escalation. Subjects are dosed at 25 mg, 75 mg, 100 mg, 150 mg and 200 mg or placebo. Safety parameters assessed include adverse events (AEs), safety laboratories, vital signs, ambulatory blood pressure monitoring (ABPM) and electrocardiogram (ECG). Subjects provide blood samples after dosing to measure plasma concentrations of LY3154207 for assessment of PK.

healthy volunteers = assay: HBEA Part B adverse events; assay type: in vivo, human; conditions: 75 mg, all mild
From the text: as §1
HBEA Part B is a study of Cerebrospinal fluid (CSF) and plasma pharmacokinetic (PK) profile following a single dose of LY3154207 in healthy volunteers. The objective of the study is to determine the CSF and plasma PK profile of LY3154207 in a single dose study m healthy volunteers. This study consisted of 2 cohorts in a single-dose, single-period, placebo-controlled, randomized, double-blind, parallel-group study. […]

C[C@H]1c2cccc(CCC(C)(C)O)c2C[C@H](CO)N1C(=O)Cc1c(Cl)cccc1Cl [LY3154207]
3 [3] events: Decreased appetite, treatment-related AE, [events] (healthy subjects; single dose 150 mg (N = 9)) | Insomnia, treatment-related AE, [events] (healthy subjects; single dose 150 mg (N = 9)) | Insomnia, treatment-related AE, [events] (healthy subjects; single dose 200 mg (N = 6))
No serious or severe AEs occurred: serious or severe AEs (healthy subjects; HBEA)
[1] events: Treatment-related AEs, [events] (healthy subjects; single dose 25 mg (N = 6))
2 [2] events: Dizziness, treatment-related AE, [events] (healthy subjects; single dose 75 mg (N = 6)) | Anxiety, treatment-related AE, [events] (healthy subjects; single dose 100 mg (N = 8)) | Dysgeusia, treatment-related AE, [events] (healthy subjects; single dose 100 mg (N = 8)) | Dizziness, treatment-related AE, [events] (healthy subjects; single dose 150 mg (N = 9)) | Dysgeusia, treatment-related AE, [events] (healthy subjects; single dose 150 mg (N = 9)) | Headache, treatment-related AE, [events] (healthy subjects; single dose 150 mg (N = 9)) | Nausea, treatment-related AE, [events] (healthy subjects; single dose 150 mg (N = 9)) | Decreased appetite, treatment-related AE, [events] (healthy subjects; single dose 200 mg (N = 6)) | Nausea, treatment-related AE, [events] (healthy subjects; single dose 200 mg (N = 6))
acceptable safety and tolerability: safety and tolerability (healthy subjects; doses ≤75 mg)
66.7%: Treatment-related AEs, (%) (healthy subjects; single dose 75 mg (N = 6))
16.7%: Treatment-related AEs, (%) (healthy subjects; single dose 25 mg (N = 6))
acceptable safety profile: safety profile (healthy subjects; dose range of 25-200 mg)
4 [4] events: Insomnia, treatment-related AE, [events] (healthy subjects; single dose 100 mg (N = 8))
88.9%: Treatment-related AEs, (%) (healthy subjects; single dose 150 mg (N = 9))
3 [3] n: Decreased appetite, treatment-related AE, n subjects (healthy subjects; single dose 150 mg (N = 9)) | Insomnia, treatment-related AE, n subjects (healthy subjects; single dose 150 mg (N = 9)) | Insomnia, treatment-related AE, n subjects (healthy subjects; single dose 200 mg (N = 6))
1 [1] n: Decreased appetite, treatment-related AE, n subjects (healthy subjects; single dose 75 mg (N = 6)) | Headache, treatment-related AE, n subjects (healthy subjects; single dose 75 mg (N = 6)) | Insomnia, treatment-related AE, n subjects (healthy subjects; single dose 75 mg (N = 6)) | Decreased appetite, treatment-related AE, n subjects (healthy subjects; single dose 100 mg (N = 8)) | Dizziness, treatment-related AE, n subjects (healthy subjects; single dose 100 mg (N = 8)) | Energy increased, treatment-related AE, n subjects (healthy subjects; single dose 100 mg (N = 8)) | Feeling hot, treatment-related AE, n subjects (healthy subjects; single dose 100 mg (N = 8)) | Energy increased, treatment-related AE, n subjects (healthy subjects; single dose 150 mg (N = 9)) | Feeling hot, treatment-related AE, n subjects (healthy subjects; single dose 150 mg (N = 9)) | Anxiety, treatment-related AE, n subjects (healthy subjects; single dose 200 mg (N = 6)) | Dizziness, treatment-related AE, n subjects (healthy subjects; single dose 200 mg (N = 6)) | Energy increased, treatment-related AE, n subjects (healthy subjects; single dose 200 mg (N = 6)) | Feeling hot, treatment-related AE, n subjects (healthy subjects; single dose 200 mg (N = 6))
1 [1] events: Decreased appetite, treatment-related AE, [events] (healthy subjects; single dose 75 mg (N = 6)) | Headache, treatment-related AE, [events] (healthy subjects; single dose 75 mg (N = 6)) | Insomnia, treatment-related AE, [events] (healthy subjects; single dose 75 mg (N = 6)) | Decreased appetite, treatment-related AE, [events] (healthy subjects; single dose 100 mg (N = 8)) | Dizziness, treatment-related AE, [events] (healthy subjects; single dose 100 mg (N = 8)) | Energy increased, treatment-related AE, [events] (healthy subjects; single dose 100 mg (N = 8)) | Feeling hot, treatment-related AE, [events] (healthy subjects; single dose 100 mg (N = 8)) | Energy increased, treatment-related AE, [events] (healthy subjects; single dose 150 mg (N = 9)) | Feeling hot, treatment-related AE, [events] (healthy subjects; single dose 150 mg (N = 9)) | Anxiety, treatment-related AE, [events] (healthy subjects; single dose 200 mg (N = 6)) | Dizziness, treatment-related AE, [events] (healthy subjects; single dose 200 mg (N = 6)) | Energy increased, treatment-related AE, [events] (healthy subjects; single dose 200 mg (N = 6)) | Feeling hot, treatment-related AE, [events] (healthy subjects; single dose 200 mg (N = 6))
mostly mild: severity of treatment-related AEs (healthy subjects; HBEA Part A, occurred primarily at doses ≥100 mg)
3 n: Anxiety, treatment-related AE, n subjects (healthy subjects; single dose 150 mg (N = 9))
0 n: Anxiety, treatment-related AE, n subjects (healthy subjects; single dose 25 mg (N = 6)) | Decreased appetite, treatment-related AE, n subjects (healthy subjects; single dose 25 mg (N = 6)) | Dizziness, treatment-related AE, n subjects (healthy subjects; single dose 25 mg (N = 6)) | Dysgeusia, treatment-related AE, n subjects (healthy subjects; single dose 25 mg (N = 6)) | Energy increased, treatment-related AE, n subjects (healthy subjects; single dose 25 mg (N = 6)) | Feeling hot, treatment-related AE, n subjects (healthy subjects; single dose 25 mg (N = 6)) | Headache, treatment-related AE, n subjects (healthy subjects; single dose 25 mg (N = 6)) | Insomnia, treatment-related AE, n subjects (healthy subjects; single dose 25 mg (N = 6)) | Nausea, treatment-related AE, n subjects (healthy subjects; single dose 25 mg (N = 6)) | Anxiety, treatment-related AE, n subjects (healthy subjects; single dose 75 mg (N = 6)) | Dysgeusia, treatment-related AE, n subjects (healthy subjects; single dose 75 mg (N = 6)) | Energy increased, treatment-related AE, n subjects (healthy subjects; single dose 75 mg (N = 6)) | Feeling hot, treatment-related AE, n subjects (healthy subjects; single dose 75 mg (N = 6)) | Nausea, treatment-related AE, n subjects (healthy subjects; single dose 75 mg (N = 6)) | Headache, treatment-related AE, n subjects (healthy subjects; single dose 100 mg (N = 8)) | Nausea, treatment-related AE, n subjects (healthy subjects; single dose 100 mg (N = 8)) | Dysgeusia, treatment-related AE, n subjects (healthy subjects; single dose 200 mg (N = 6)) | Headache, treatment-related AE, n subjects (healthy subjects; single dose 200 mg (N = 6))
well tolerated: tolerability (healthy subjects; HBEA, increase in AEs associated with central activation at doses ≥75 mg)
4 [4] n: Insomnia, treatment-related AE, n subjects (healthy subjects; single dose 100 mg (N = 8))
[18] events: Treatment-related AEs, [events] (healthy subjects; single dose 200 mg (N = 6))
substantial increase in frequency: frequency of activating adverse events such as insomnia (healthy subjects; above the 75 mg dose)
83.3%: Treatment-related AEs, (%) (healthy subjects; single dose 200 mg (N = 6))
69/111: treatment emergent AEs that occurred at doses ≥100 mg, of the total of 111 (healthy subjects; HBEA Part A, doses ≥100 mg)
75.0%: Treatment-related AEs, (%) (healthy subjects; single dose 100 mg (N = 8))
2 [2] n: Dizziness, treatment-related AE, n subjects (healthy subjects; single dose 75 mg (N = 6)) | Anxiety, treatment-related AE, n subjects (healthy subjects; single dose 100 mg (N = 8)) | Dysgeusia, treatment-related AE, n subjects (healthy subjects; single dose 100 mg (N = 8)) | Dizziness, treatment-related AE, n subjects (healthy subjects; single dose 150 mg (N = 9)) | Dysgeusia, treatment-related AE, n subjects (healthy subjects; single dose 150 mg (N = 9)) | Headache, treatment-related AE, n subjects (healthy subjects; single dose 150 mg (N = 9)) | Nausea, treatment-related AE, n subjects (healthy subjects; single dose 150 mg (N = 9)) | Decreased appetite, treatment-related AE, n subjects (healthy subjects; single dose 200 mg (N = 6)) | Nausea, treatment-related AE, n subjects (healthy subjects; single dose 200 mg (N = 6))
[8] events: Treatment-related AEs, [events] (healthy subjects; single dose 75 mg (N = 6))
[34] events: Treatment-related AEs, [events] (healthy subjects; single dose 150 mg (N = 9))
4 events: Anxiety, treatment-related AE, [events] (healthy subjects; single dose 150 mg (N = 9))
[17] events: Treatment-related AEs, [events] (healthy subjects; single dose 100 mg (N = 8))
25%: subjects with treatment-related AEs (healthy volunteers)
